From the supplement of paper PMC11451515

Tested on: P12-Ichikawa
Test: cell viability relative to DMSO control; higher = less cytotoxic
Conditions: 48 h
Outline: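 Library compounds in DMSO were pin-dosed into 1536-well plates (5 μl) holding NOMO1 or SEM (500 cells/well) or P12-Ichikawa (1000 cells/well) leukemia cells, across an 11-point threefold series of 47 μM to 0.79 nM. Each cell line had been adapted for at least four passages in each medium. CellTiter-Glo One luminescence was read after 48 h at 37°C. Viability is the per-plate percentage relative to DMSO wells, with cell-free wells as background.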

[1] = HPLM + 10% dialyzed FBS, 0.000781 µM
[2] = HPLM + 10% dialyzed FBS, 0.00234 µM
[3] = HPLM + 10% dialyzed FBS, 0.00702 µM
[4] = HPLM + 10% dialyzed FBS, 0.0211 µM
[5] = HPLM + 10% dialyzed FBS, 0.0632 µM
[6] = HPLM + 10% dialyzed FBS, 0.19 µM
[7] = HPLM + 10% dialyzed FBS, 0.569 µM
[8] = HPLM + 10% dialyzed FBS, 1.71 µM
[9] = HPLM + 10% dialyzed FBS, 5.12 µM
[10] = HPLM + 10% dialyzed FBS, 15.4 µM
[11] = HPLM + 10% dialyzed FBS, 46.1 µM
[12] = RPMI 5 mM glucose + 10% FBS, 0.000781 µM
[13] = RPMI 5 mM glucose + 10% FBS, 0.00234 µM
[14] = RPMI 5 mM glucose + 10% FBS, 0.00702 µM
[15] = RPMI 5 mM glucose + 10% FBS, 0.0211 µM
[16] = RPMI 5 mM glucose + 10% FBS, 0.0632 µM
[17] = RPMI 5 mM glucose + 10% FBS, 0.19 µM
[18] = RPMI 5 mM glucose + 10% FBS, 0.569 µM
[19] = RPMI 5 mM glucose + 10% FBS, 1.71 µM
[20] = RPMI 5 mM glucose + 10% FBS, 5.12 µM
[21] = RPMI 5 mM glucose + 10% FBS, 15.4 µM
[22] = RPMI 5 mM glucose + 10% FBS, 46.1 µM
[23] = RPMI 5 mM glucose + 10% dialyzed FBS, 0.000781 µM
[24] = RPMI 5 mM glucose + 10% dialyzed FBS, 0.00234 µM
[25] = RPMI 5 mM glucose + 10% dialyzed FBS, 0.00702 µM
[26] = RPMI 5 mM glucose + 10% dialyzed FBS, 0.0211 µM
[27] = RPMI 5 mM glucose + 10% dialyzed FBS, 0.0632 µM
[28] = RPMI 5 mM glucose + 10% dialyzed FBS, 0.19 µM
[29] = RPMI 5 mM glucose + 10% dialyzed FBS, 0.569 µM
[30] = RPMI 5 mM glucose + 10% dialyzed FBS, 1.71 µM
[31] = RPMI 5 mM glucose + 10% dialyzed FBS, 5.12 µM
[32] = RPMI 5 mM glucose + 10% dialyzed FBS, 15.4 µM
[33] = RPMI 5 mM glucose + 10% dialyzed FBS, 46.1 µM

SMILES	cell viability [1] [%]	cell viability [2] [%]	cell viability [3] [%]	cell viability [4] [%]	cell viability [5] [%]	cell viability [6] [%]	cell viability [7] [%]	cell viability [8] [%]	cell viability [9] [%]	cell viability [10] [%]	cell viability [11] [%]	cell viability [12] [%]	cell viability [13] [%]	cell viability [14] [%]	cell viability [15] [%]	cell viability [16] [%]	cell viability [17] [%]	cell viability [18] [%]	cell viability [19] [%]	cell viability [20] [%]	cell viability [21] [%]	cell viability [22] [%]	cell viability [23] [%]	cell viability [24] [%]	cell viability [25] [%]	cell viability [26] [%]	cell viability [27] [%]	cell viability [28] [%]	cell viability [29] [%]	cell viability [30] [%]	cell viability [31] [%]	cell viability [32] [%]	cell viability [33] [%]
C[C@@H](CN1CC(=O)NC(=O)C1)N1CC(=O)NC(=O)C1	104	111	110	109	108	75	47	11.5	13.7	4.45	2.49	101	104	98.5	116	111	97.7	80.7	18.1	18.9	5.1	4.44	94.6	108	96.8	110	105	84	61.3	19.7	20	6.43	4.62
COC1=CC=C(C(=C1)OC(C)C)C/2=N/[C@@H]([C@@H](N2C(=O)N3CCNC(=O)C3)C4=CC=C(Cl)C=C4)C5=CC=C(Cl)C=C5	108	113	115	108	109	111	108	102	76	37.1	12.1	122	125	127	119	116	118	106	111	97.2	52	49.6	122	119	116	117	125	113	112	110	88.3	41.5	27.8
CCCNC(=O)Nc1ccc(Oc2ncnc3cc(OC)c(OC)cc23)cc1Cl	88.2	97.6	93.4	99.9	98.7	97.3	89	76.1	88.1	95.6	84.2	93.9	97.3	97.2	99.8	94.7	96.3	87.6	82.8	85.2	81.3	80.4	98.7	99.5	94.8	99.7	92	91.1	91.4	93.5	86.8	86.5	75.7
NC(=O)c1ccc(N(C(N)=O)c2c(F)cccc2F)nc1-c1ccc(F)cc1F	101	101	105	101	107	102	106	101	108	95.3	104	101	97.1	100	98.7	108	94.7	109	95.6	98.5	88.7	96.3	94.9	96.1	99	102	100	92.1	91	92.7	91.2	87.5	88.6
O=C(O)C(=O)c1cn(Cc2ccccc2)c2ccc(-c3ccc(OC(F)(F)F)cc3)cc12	106	105	109	110	111	109	97.6	103	98.2	95	93.4	99.9	109	102	102	100	99.9	109	103	102	98.4	87	95.9	103	98.7	101	101	97.2	94.4	91.6	102	99.6	90.2
CC(C)(O)CC(=O)NCCn1ccc2ncnc(Nc3ccc(Oc4cccc(C(F)(F)F)c4)c(Cl)c3)c21	120	115	116	112	111	109	108	102	87.2	69.5	60.7	110	107	121	114	121	105	107	111	93.3	75.6	52	104	113	117	109	115	113	110	106	95.8	69.1	47.4
N[C@@H]1CONC1=O	97.7	108	101	105	109	106	109	112	114	100	110	95.6	95.6	106	102	111	102	104	95.5	102	97.2	103	92.6	95.9	101	101	105	106	98.7	102	96.5	101	103
CCCCOc1c(C(=O)c2c(F)cc(C)cc2F)cnc2[nH]ncc12	97.5	102	104	109	107	89.6	104	107	102	91.3	95.5	104	99	107	102	104	108	103	105	88.4	94.4	77.9	107	104	102	104	101	97.4	93.8	94.6	78.9	89.6	81.3
O=P(O)(O)C(O)(Cn1ccnc1)P(=O)(O)O	97.2	111	64	114	111	122	121	119	125	112	117	109	122	70.9	126	131	134	136	137	137	136	125	101	108	67.8	111	114	120	116	114	112	122	118
COC(=O)c1ccc2c(c1)NC(=O)/C2=C(\Nc1ccc(N(C)C(=O)CN2CCN(C)CC2)cc1)c1ccccc1	105	109	102	101	92.6	101	102	102	98.6	95.9	96.9	106	102	96.1	86	101	104	101	94	102	97.3	89.3	102	104	104	90.2	101	99	95.6	93.4	99.4	86.2	93.5
Cc1ccccc1C(=O)Nc1ccc(C(=O)N2CCCC(O)c3cc(Cl)ccc32)c(C)c1 (stereo unspecified)	116	117	120	122	127	135	131	136	129	127	124	–	–	–	–	–	–	–	–	–	–	–	–	–	–	–	–	–	–	–	–	–	–
Cc1coc2c1C(=O)C(=O)c1c-2ccc2c1CCCC2(C)C	103	106	109	116	106	104	93	93.2	94	94.8	99.8	96.6	98.3	97.9	95.3	91	92.1	95.4	88.6	91.5	89.4	87.9	95.5	97.8	103	93.7	96.5	87.7	87.3	87.8	83.4	84.7	92.2
CCCCOCCOc1nc(-c2ccc(C(=O)O)c(F)c2)sc1C	119	116	112	116	119	112	115	112	107	94.5	110	124	117	118	120	120	110	108	100	99.7	86.5	97.6	123	127	124	121	116	114	118	105	111	85	113
COc1ccc(C(=O)c2c(C)n(CCN3CCOCC3)c3cc(I)ccc23)cc1	106	113	113	124	124	121	119	120	39.7	13.7	9.27	115	121	128	122	129	124	133	130	41.6	14.3	12.3	102	110	130	118	129	134	131	126	94.2	32.8	14.9
CC(N[C@H]1CCCC[C@@H]1NC(=O)c1ccc(Cl)cc1)c1cccc2ccccc12 (stereo partly specified)	107	109	114	110	113	115	111	116	114	39.7	28.1	117	119	113	118	117	115	119	111	102	30.9	35.2	105	105	109	104	102	113	108	110	106	30.6	28.7
CNCC[C@H](Oc1cccc2ccccc12)c1cccs1	109	116	111	113	109	96.2	112	108	105	95.8	25.1	126	119	124	120	121	119	112	118	119	111	81	107	115	112	119	105	116	111	105	105	98.6	58
